Results on four compounds are retold here after patent US8883962B2, “Zinc-responsive peptides, and methods of use thereof” (Massachusetts Institute of Technology, priority 2012, dated 2014).

Several values for one entry are separate records, joined by “and”; a condition that tells them apart may be missing. Identical values can stand only once. Counter-ions that a name gives are not always drawn. The star is where a group is joined. ZP1 = ZinPyr-1 zinc sensor: fluorescein platform with two dipicolylamine metal-binding arms, attached via its 6-CO2H; Palmitoyl = CCCCCCCCCCCCCCCC(=O)*

The conditions of series [1]: 50 mM PIPES buffer (pH 7), 100 mM KCl; read-out: Kd-Zn (known); cited from earlier work.
The conditions of series [2]: in 0.1 M H2SO4; cited from earlier work.
Series [3] in a line: Photophysical characterization (absorbance, emission, quantum yield) without and with zinc. The class given is physicochemical. Particulars: 25 mM PIPES (pH 7), 50 mM KCl. Here is the method:
To investigate whether the zinc-sensing properties of the ZP1 moiety withstood the conditions of SPPS, we studied the zinc-binding and photophysical properties of Palm-ZP1 in vitro. Due to the hydrophobic palmitoyl moiety, we used a mixed solvent system consisting of 25 mM PIPES buffer (pH 7) with 50 mM KCl and 50% acetonitrile (v/v). In the absence of zinc, Palm-ZP1 has spectral features that are similar to those of other ZP1 derivatives. Apo Palm-ZP1 has a λabs=518 nm and λem=534 nm (φapo=0.16±0.05) (FIG. 24 and FIG. 29). Addition of ZnCl2 to a solution of Palm-ZP1 produced a characteristic blue-shift in absorption and emission spectra (λabs=505 nm; λem=527 nm) and an enhancement of fluorescence (φZn=0.79±0.05) (FIG. 16a).
ZQ-MPP was prepared manually using standard solid phase methodology. […] In the absence of zinc, ZQ-MPP has two main absorption bands with maxima at λabs=243 and 336 nm (FIG. 26), and is essentially non-emissive (φ≦0.002). Addition of ZnCl2 gives rise to two new features in the absorption spectrum (λabs=264 and 358 nm), and a large increase (>100-fold; φ=0.36±0.01) in fluorescence intensity (λem=484 nm, FIG. 16b, 26, and Table 30).
Spectroscopic measurements for Palm-ZP1 were carried out in a mixed solvent system consisting of 25 mM PIPES buffer (pH 7) with 50 mM KCl and 50% acetonitrile (v/v) (FIG. 24). Except where noted, all fluorescence data were obtained by exciting at 495 nm and observing from 500-650 nm, with 0.1 sec integration time and slit widths of 0.4 mm (1.6 nm). Emission spectra represent the average of three scans. The quantum yield of Palm-ZP1 was referenced to fluorescein in 0.1 M NaOH(aq), which has a known quantum yield of φ=0.95. Lakowicz, J. R. Principles of fluorescence spectroscopy; 2nd ed.; Kluwer Academic/Plenum: New York, 1999.
Characterization of ZQ-MPP (FIG. 26) was performed in 25 mM PIPES buffer (pH 7) with 50 mM KCl, and 50% (v/v) acetonitrile. Zinc affinities (Kd-Zn) were compared to TSQ under identical conditions (FIG. 27 and FIG. 30). Quantum yields for ZQ-MPP and TSQ were reference to quinine sulfate in 0.1 M H2SO4, which has a known quantum yield of (I)=0.58. Eastman, J. W. Photochem. Photobio. 1967, 6, 55.

In series [4] the test system is HeLa cells. The experiment in a line: Live cell imaging of zinc-induced fluorescence turn-on. The class given is cell-based. Here is the method:
To assess the ability of Palm-ZP1 to function within a cellular environment, we conducted live cell imaging experiments. HeLa cells were incubated with a 10 μM solution of Palm-ZP1 in Dulbecco's Modified Eagle Medium (DMEM) for 30 min (37° C., 5% CO2) prior to imaging. Initial cell images had minimal ZP1 emission, consistent with the low quantum yield for the apo form of the sensor. […] Subsequent addition of 100 μM EDTA, a cell-impermeable chelator, attenuated the fluorescent signal to initial levels within 5 min, further confirming that the zinc-induced fluorescence increase occurs extracellularly.
(§1) We carried out live cell imaging experiments to determine whether ZQ-MPP could target mitochondria and report on changes in zinc concentrations. HeLa cells were pretreated with a 25 μM solution of ZQ-MPP, which also contained MitoTracker Red as an internal mitochondria tracker (see later examples). […] The localization of ZQ-MPP was investigated with multichannel fluorescence microscopy. Visually, the distribution of MitoTracker Red (FIG. 19b) and ZQ-MPP (FIG. 19c) appear nearly identical. Overlaying the images (FIG. 19d) and calculating the Pearson's correlation coefficient yields an r=0.71±0.01, indicating strong colocalization.
HeLa cells were cultured at 37° C. under a 5% CO2 humidified atmosphere in Dulbecco's Modified Eagle Medium (High Glucose DMEM, Invitrogen) supplemented with 10% fetal bovine serum (FBS, HyClone), penicillin (100 μg/mL), and streptomycin (100 μg/mL). For live cell imaging, cells were seeded in 35-mm poly-D-Lys coated glass-bottom culture dishes (MatTek Corporation).
Palm-ZP1 (10 μM) was incubated for 30 min at 37° C. and 5% CO2 in DMEM. For multichannel imaging and co-localization studies, staining of the plasma membrane was accomplished by addition of Cell Mask Orange (Life Technologies, final concentration 2.5 μg/mL) for 15-20 min. Prior to imaging, cells were rinsed with warm dye- and serum-free DMEM (2×2 mL) and bathed in warm dye- and serum-free DMEM (2 mL). To assess the zinc responsiveness of Palm-ZP1, stock solutions of ZnCl2 (10 mM) were diluted in warm dye- and serum-free DMEM to a final ZnCl2 concentration of 50 μM. The zinc-enriched media was exchanged in the cell culture dish directly on the microscope stage. […]
(§2) The imaging experiments were performed using a Zeiss Axiovert 200M inverted epifluorescence microscope equipped with an EM-CCD digital camera (Hamamatsu) and a MS200 XY Piezo Z stage (Applied Scientific Instruments). The light source was an X-Cite 120 metal-halide lamp (EXFO) and the fluorescence images were obtained using an oil-immersion objective at 63× magnification. […]

A short description of series [5]: Apparent zinc-binding affinity (Kd-Zn) by fluorescence titration in buffered zinc solution. Particulars: CaEDTA buffered solution, 25 mM PIPES (pH 7), 50 mM KCl, 50% acetonitrile. Here is the method: Apparent zinc-binding affinities (Kd-Zn) were determined by a modified literature procedure. Walkup, G. K.; et al. J. Am. Chem. Soc. 2000, 122, 5644. For each zinc-binding titration, 1 mM EDTA and 2 mM CaCl2 were added to the MeCN/PIPES buffered solution. Palm-ZP1 or ZP1 was added, and the system was allowed to reach equilibrium (30 min). Aliquots of ZnCl2 were successively added, and the emission spectra recorded once the emission spectrum stabilized (˜30 min). The amount of free zinc for a given concentration of total zinc was calculated using the maxchelator program (http://maxchelator.stanford.edu/webmaxc/webmaxcS.htm) based on initial values of 1 mM EDTA, 2 mM CaCl2, an ionic strength of I=0.05 mol dm^−3, and a pH of 7.0. Due to the addition of acetonitrile to the buffered solution, we compared the apparent Kd-Zn for Palm-ZP1 to ZP1 under identical conditions (FIG. 25 and FIG. 29).
Apparent zinc-binding affinities (Kd-Zn) were determined using a modified literature procedure. Fahrni, C. J.; et al. J. Am. […] Aliquots of ZnCl2 were successively added, and the emission spectra recorded once the emission spectrum stabilized (˜30 min). The amount of free zinc for a given concentration of total zinc was calculated using the maxchelator program (http://maxchelator.stanford.edu/webmaxc/webmaxcS.htm) based on initial values of 2 mM EGTA at an ionic strength of I=0.05 mol dm^−3 and a pH of 7.0. […]

Series [6] relates to HeLa cells. The experiment in a line: Localization study in live cells by multichannel fluorescence microscopy (Pearson's correlation coefficient). The class given is cell-based. Here is the method: We next explored whether Palm-ZP1 selective accumulates in the plasma membrane. […] Quantitative image analysis corroborated these findings: Palm-ZP1 and Cell Mask Orange strongly co-localize with a Pearson's correlation coefficient of r=0.70±0.05.
as §1
Palm-ZP1 (10 μM) was incubated for 30 min at 37° C. and 5% CO2 in DMEM. For multichannel imaging and co-localization studies, staining of the plasma membrane was accomplished by addition of Cell Mask Orange (Life Technologies, final concentration 2.5 μg/mL) for 15-20 min. Prior to imaging, cells were rinsed with warm dye- and serum-free DMEM (2×2 mL) and bathed in warm dye- and serum-free DMEM (2 mL). […]
as §2
To calculate r, images were first deconvoluted using a calculated point-spread function (PSF) map based on emission wavelength, refractive index of the media (n=1.518), and the numerical aperture (1.4). Deconvoluted channels (i.e., sensor and organelle trackers) were merged and analyzed. For each image, a minimum of three regions-of-interest (ROI) were selected and the r-value calculated using an ImageJ plugin. […]

In the case of `O=C1OC2(c3ccccc31)c1cc(Cl)c(O)c(CN(Cc3ccccn3)Cc3ccccn3)c1Oc1c2cc(Cl)c(O)c1CN(Cc1ccccn1)Cc1ccccn1` [ZP1], the Kd in series [1] is 700 pM.

On to `C=C[C@H]1C[N@@]2CC[C@H]1C[C@H]2[C@H](O)c1ccnc2ccc(OC)cc12` [quinine sulfate], for which the “known quantum yield (reference standard)” value in series [2] is 0.58.

In the case of “Palmitic acid-PPPDDK(ZPI)-CONH2 (Palmitoyl-PPPDDK(ZP1)-NH2; not fully specified) [Palm-ZP1]”, in series [3] (50% acetonitrile (v/v)), the “quantum yield φ, absence of zinc (apo)” value amounted to 0.16±0.05; the “quantum yield φ, zinc-bound” value stood at 0.79±0.05; the “λabs after addition of ZnCl2” value turned out to be 505 nm; the “λabs, absence of zinc (apo)” value came out at 518 nm. Moreover, in series [3] (50% acetonitrile (v/v)), the “λem after addition of ZnCl2” value was 527 nm and the “λem, absence of zinc (apo)” value is 534 nm. Moreover, the “increase in ZP1 fluorescence intensity at the peripheral membrane” value with HeLa cells [4] (10 μM probe, addition of 50 μM ZnCl2, no ionophore) was roughly 1.7 fold. Besides, the “time for fluorescent signal to be attenuated to initial levels” value with HeLa cells [4] (addition of 100 μM EDTA) is on record as no more than 5 min. Moreover, the “Kd-Zn compared with ZP1” value in series [5] is “closely approximates the Kd-Zn of ZP1”. In the series on HeLa cells [6], the “Pearson's correlation coefficient r with Cell Mask Orange (plasma membrane)” value is 0.70±0.05. The localization in cells entry in the series with HeLa cells [6] (multichannel fluorescence microscopy) is “preferentially localize to the plasma membrane”.

In the case of zinquin-FxrFxrFxr-CONH2 [ZQ-MPP], in series [3] (50% acetonitrile (v/v)), the “quantum yield φ, absence of zinc (apo)” value is given as no more than 0.002; the “quantum yield φ, zinc-bound” value amounted to 0.36±0.01; the “λabs after addition of ZnCl2” value is 264 nm and 358 nm; the “λabs, absence of zinc (apo)” value is 243 nm and 336 nm. The “λem after addition of ZnCl2” value in series [3] (50% acetonitrile (v/v)) worked out at 484 nm. Besides, the “increase in fluorescence intensity upon addition of ZnCl2” value in series [3] (in vitro, 50% acetonitrile) is given as greater than 100 fold. For the same compound, in the series on HeLa cells [4] (25 μM probe, addition of 50 μM zinc/pyrithione), the “increase in ZQ-MPP intensity” value was roughly 15 fold. In the series on HeLa cells [4] (addition of 100 μM TPEN), the “signal after addition of zinc chelator” value is “returned to near baseline levels”. For the same compound, the “Pearson's correlation coefficient r with MitoTracker Red (mitochondria)” value with HeLa cells [6] was found to be 0.71±0.01.

What is called Kd is the constant that tells how readily two partners part at equilibrium.
